Experimental data as given in patent US20260115185A1, “QUINOLINE DERIVATIVES WHICH ACT AS KAPPA-OPIOID RECEPTOR ANTAGONISTS” (The Scripps Research Institute, priority 2023, published 2026).

Experiments:
mu opioid receptor (MOR) = target: T1, mu opioid receptor (MOR) (Homo sapiens, UniProt P35372); assay: OPRMu1 Discover X β-arrestin Assay, antagonist mode (U2OS cells, DAMGO EC80 challenge); format: cell-based
T1 construct: host or cells: U2OS (Discover X OPRMu1-U2OS, PathHunter)
Method in brief: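 PathHunter U2OS cells with β-gal fragment-complementation readout for β-arrestin recruitment to OPRMu1. Cells were preincubated with compound (10-point, 1:3 series from nominal 10 micromolar) for 30 min at 37 °C, then challenged with 303 nM DAMGO (EC80) for 3 h. Luminescence gave percent inhibition.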

[1] = target: T2, kappa opioid receptor (KOR) (Homo sapiens, UniProt P41145); assay: OPRKappa 1 Tango B-Arrestin Assay, antagonist mode (Tango OPRK1-bla U2OS cells, U50488 EC80 challenge); format: cell-based; details: for Selectivity (MOR/KOR): Kappa selectivity, MOR IC50 / KOR IC50; for IC50: antagonist mode, Tango OPRK1-bla U2OS cells, 6 nM U50488 challenge
T2 construct: host or cells: U2OS (Tango OPRK1-bla U2OS)
T2 sequence (P41145 whole entry): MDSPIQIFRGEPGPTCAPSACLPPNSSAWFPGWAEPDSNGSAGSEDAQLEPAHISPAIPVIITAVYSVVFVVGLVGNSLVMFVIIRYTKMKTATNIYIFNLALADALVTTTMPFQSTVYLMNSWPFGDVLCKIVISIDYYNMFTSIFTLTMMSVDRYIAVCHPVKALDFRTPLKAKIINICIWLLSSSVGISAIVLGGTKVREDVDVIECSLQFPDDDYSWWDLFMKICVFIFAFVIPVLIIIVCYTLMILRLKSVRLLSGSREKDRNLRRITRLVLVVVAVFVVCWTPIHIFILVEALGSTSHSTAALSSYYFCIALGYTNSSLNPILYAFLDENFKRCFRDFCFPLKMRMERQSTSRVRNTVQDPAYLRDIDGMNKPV
Method in brief: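 Tango OPRK1-bla U2OS cells, β-arrestin recruitment read as β-lactamase FRET (CCF4-AM, 460/590 nm emission). Compounds, 10-point 1:3 series from nominal 10 µM in quadruplicate, preincubated 30 min at 37 °C, then challenged with U50488 at 6 nM final (EC80) for 4 h; percent inhibition from median ratio.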

T1 sequence (P35372 whole entry): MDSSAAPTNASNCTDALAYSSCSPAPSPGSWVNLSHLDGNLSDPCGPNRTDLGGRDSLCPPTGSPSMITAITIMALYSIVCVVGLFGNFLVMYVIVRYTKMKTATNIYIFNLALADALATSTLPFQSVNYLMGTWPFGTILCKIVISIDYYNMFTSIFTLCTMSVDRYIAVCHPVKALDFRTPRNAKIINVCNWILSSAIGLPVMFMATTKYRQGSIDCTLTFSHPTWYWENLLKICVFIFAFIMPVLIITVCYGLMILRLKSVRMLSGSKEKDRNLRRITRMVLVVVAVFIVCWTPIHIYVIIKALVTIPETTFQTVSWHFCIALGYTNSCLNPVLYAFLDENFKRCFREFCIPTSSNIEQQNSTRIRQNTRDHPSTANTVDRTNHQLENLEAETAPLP

SMILES	IC50 (mu opioid receptor (MOR)) [nM]	IC50 [1] [nM]	Selectivity (MOR/KOR) [1]
CCc1cc(F)c2nc(N3CC[C@H](N[C@@H]4CCCOC4)C[C@H]3C)c(-c3cc(C)no3)c(C)c2c1 [Compound 142]	10 to 100	< 1	+++ (between 100- to 1000-fold selective)
CCc1cc(F)c2nc(N3CC[C@@H](N[C@@H]4CCCOC4)C[C@@H]3C)c(-c3cc(C)no3)c(C)c2c1 [Compound 143]	> 1000	10 to 100	++++ (more than 1000-fold selectivity over MOR)
CCc1cc(F)c2nc(N3CC[C@@H](N[C@@H]4CCCOC4)C[C@H]3C)c(-c3cc(C)no3)c(C)c2c1 [Compound 144]	100 to 1000	< 1	+++ (between 100- to 1000-fold selective)
CCc1cc(F)c2nc(N3CCN(C(=O)[C@H](C)N(CC)CC)C[C@H]3C)c(-c3cc(C)no3)c(C)c2c1 [Compound 164]	> 1000	10 to 100	+++ (between 100- to 1000-fold selective)
CCc1cc(F)c2nc(N3CCN(C(=O)CN(CC)CC)C[C@H]3C)c(-c3cc(C)no3)c(C)c2c1 [Compound 166]	> 1000	1 to 10	+++ (between 100- to 1000-fold selective)
CCc1cc(F)c2nc(N3CCN(C(=O)[C@@H]4C[C@@H](O)CN4C)C[C@H]3C)c(-c3cc(C)no3)c(C)c2c1 [Compound 167]	> 1000	1 to 10	+++ (between 100- to 1000-fold selective)
CCc1cc(F)c2nc(N3CCN(C(=O)[C@H](CO)N(C)C)C[C@H]3C)c(-c3cc(C)no3)c(C)c2c1 [Compound 168]	> 1000	1 to 10	+++ (between 100- to 1000-fold selective)
CCc1cc(F)c2nc(N3CCN(C(=O)[C@@H](C)N(CC)CC)C[C@H]3C)c(-c3ccn(C)n3)c(C)c2c1 [Compound 170]	> 1000	10 to 100	+++ (between 100- to 1000-fold selective)
CCc1cc(F)c2nc(N3CCN(C(=O)CN(C)C)C[C@H]3C)c(-c3ccn(C)n3)c(C)c2c1 [Compound 171]	> 1000	10 to 100	+++ (between 100- to 1000-fold selective)
CCc1cc(F)c2nc(N3CCN(C(=O)[C@H](C)N(CC)CC)C[C@H]3C)c(-c3ccn(C)n3)c(C)c2c1 [Compound 174]	> 1000	10 to 100	+++ (between 100- to 1000-fold selective)
CCc1cc(F)c2nc(N3CCN(C(=O)[C@@H]4CCCN4C)C[C@H]3C)c(-c3ccn(C)n3)c(C)c2c1 [Compound 175]	> 1000	10 to 100	+++ (between 100- to 1000-fold selective)
CCc1cc(F)c2nc(N3CCN(C(=O)CN(CC)CC)C[C@H]3C)c(-c3ccn(C)n3)c(C)c2c1 [Compound 176]	> 1000	1 to 10	+++ (between 100- to 1000-fold selective)
CCc1cc(F)c2nc(N3CCN(C(=O)[C@@H]4C[C@@H](O)CN4C)C[C@H]3C)c(-c3ccn(C)n3)c(C)c2c1 [Compound 177]	> 1000	≥ 100	+++ (between 100- to 1000-fold selective)
CCc1cc(F)c2nc(N3CCN(C(=O)[C@H](CO)N(C)C)C[C@H]3C)c(-c3ccn(C)n3)c(C)c2c1 [Compound 178]	> 1000	10 to 100	+++ (between 100- to 1000-fold selective)
CCc1cc(F)c2nc(N3CCN(C(=O)[C@@H](C)N(CC)CC)C[C@H]3C)c(-c3cc(C)no3)c(C)c2c1 [Compound 180]	> 1000	1 to 10	+++ (between 100- to 1000-fold selective)
CCc1cc(F)c2nc(N3CCN(C(=O)CN(C)C)C[C@H]3C)c(-c3cc(C)no3)c(C)c2c1 [Compound 181]	> 1000	10 to 100	+++ (between 100- to 1000-fold selective)

Second part, led by results:

IC50 (mu opioid receptor (MOR)) [nM]	IC50 [1] [nM]	SMILES	Selectivity (MOR/KOR) [1]
> 1000	1 to 10	CCc1cc(F)c2nc(N3CCN(C(=O)CN4CC[C@@H](O)C4)C[C@H]3C)c(-c3nc(C)no3)c(C)c2c1 [Compound 145]	++++ (more than 1000-fold selectivity over MOR)
> 1000	10 to 100	CCc1cc(F)c2nc(N3CCN(C(=O)[C@@H](C)N4CC[C@@H](O)C4)C[C@H]3C)c(-c3nc(C)no3)c(C)c2c1 [Compound 146]	+++ (between 100- to 1000-fold selective)
100 to 1000	1 to 10	CCc1cc(F)c2nc(N3CCN(C(=O)[C@@H](C)N4CC[C@@H](F)C4)C[C@H]3C)c(-c3nc(C)no3)c(C)c2c1 [Compound 147]	+++ (between 100- to 1000-fold selective)
> 1000	1 to 10	CCc1cc(F)c2nc(N3CCN(C(=O)[C@@H](C(C)C)N4CCCC4)C[C@H]3C)c(-c3nc(C)no3)c(C)c2c1 [Compound 148]	+++ (between 100- to 1000-fold selective)
100 to 1000	1 to 10	CCc1cc(F)c2nc(N3CCN(C(=O)CN4CC[C@@H](F)C4)C[C@H]3C)c(-c3nc(C)no3)c(C)c2c1 [Compound 149]	+++ (between 100- to 1000-fold selective)
> 1000	≥ 100	CCc1cc(F)c2nc(N3CCN(C(=O)[C@H](C)N4CC[C@@H](O)C4)C[C@H]3C)c(-c3nc(C)no3)c(C)c2c1 [Compound 150]	+++ (between 100- to 1000-fold selective)
> 1000	1 to 10	CCc1cc(F)c2nc(N3CCN(C(=O)[C@H](C(C)C)N4CCCC4)C[C@H]3C)c(-c3nc(C)no3)c(C)c2c1 [Compound 152]	+++ (between 100- to 1000-fold selective)
> 1000	1 to 10	CCc1cc(F)c2nc(N3CCN(C(=O)C(C)(C)N4CCCC4)C[C@H]3C)c(-c3nc(C)no3)c(C)c2c1 [Compound 153]	+++ (between 100- to 1000-fold selective)
> 1000	1 to 10	CCc1cc(F)c2nc(N3CCN(C(=O)[C@@H](C)N(CC)CC)C[C@H]3C)c(-c3nc(C)no3)c(C)c2c1 [Compound 155]	+++ (between 100- to 1000-fold selective)
100 to 1000	1 to 10	CCc1cc(F)c2nc(N3CCN(C(=O)CN4CCC(F)(F)CC4)C[C@H]3C)c(-c3nc(C)no3)c(C)c2c1 [Compound 156]	++ (between 10- and 100-fold selectivity)
> 1000	1 to 10	CCc1cc(F)c2nc(N3CCN(C(=O)[C@H](C)N(CC)CC)C[C@H]3C)c(-c3nc(C)no3)c(C)c2c1 [Compound 158]	++++ (more than 1000-fold selectivity over MOR)
> 1000	10 to 100	CCc1cc(F)c2nc(N3CCN(C(=O)[C@@H]4C[C@@H](O)CN4C)C[C@H]3C)c(-c3nc(C)no3)c(C)c2c1 [Compound 160]	+++ (between 100- to 1000-fold selective)
100 to 1000	< 1	CCc1cc(F)c2nc(N3[C@H](C)CN(C(=O)CN4CCCC4)C[C@H]3C)c(-c3nc(C)no3)c(C)c2c1 [Compound 161]	+++ (between 100- to 1000-fold selective)
> 1000	1 to 10	CCc1cc(F)c2nc(N3CCN(C(=O)[C@H](CO)N(C)C)C[C@H]3C)c(-c3nc(C)no3)c(C)c2c1 [Compound 162]	+++ (between 100- to 1000-fold selective)
> 1000	10 to 100	CCc1cc(F)c2nc(N3CCN(C(=O)[C@@H]4CCCN4C)C[C@H]3C)c(-c3cc(C)no3)c(C)c2c1 [Compound 165]	+++ (between 100- to 1000-fold selective)
> 1000	1 to 10	CCc1cc(F)c2nc(N3CCN(C(=O)C(C)(C)N4CCCC4)C[C@H]3C)c(-c3ccn(C)n3)c(C)c2c1 [Compound 169]	++ (between 10- and 100-fold selectivity)
100 to 1000	1 to 10	CCc1cc(F)c2nc(N3CCN(C(=O)CN4CCCC4)C[C@H]3C)c(-c3ccn(C)n3)c(C)c2c1 [Compound 173]	+++ (between 100- to 1000-fold selective)
> 1000	10 to 100	CCc1cc(F)c2nc(N3CCN(C(=O)C(C)(C)N4CCCC4)C[C@H]3C)c(-c3cc(C)no3)c(C)c2c1 [Compound 179]	++ (between 10- and 100-fold selectivity)
> 1000	1 to 10	CCc1cc(F)c2nc(N3CCN(C(=O)[C@H]4CCCN4C)C[C@H]3C)c(-c3nc(C)no3)c(C)c2c1 [Compound 183]	++++ (more than 1000-fold selectivity over MOR)
> 1000	10 to 100	CCc1cc(F)c2nc(N3CCN(C(=O)[C@H]4COCCN4C)C[C@H]3C)c(-c3nc(C)no3)c(C)c2c1 [Compound 184]	+++ (between 100- to 1000-fold selective)
> 1000	10 to 100	CCc1cc(F)c2nc(N3CCN(C(=O)[C@@H]4COCCN4C)C[C@H]3C)c(-c3nc(C)no3)c(C)c2c1 [Compound 185]	+++ (between 100- to 1000-fold selective)
100 to 1000	1 to 10	CCc1cc(F)c2nc(N3CCN(CCC4CC(F)(F)C4)C[C@H]3C)c(-c3nc(C)no3)c(C)c2c1 [Compound 186]	+++ (between 100- to 1000-fold selective)
